Patent publication US20220273751A1, “GPCR HETEROMER INHIBITORS AND USES THEREOF” (GPCR THERAPEUTICS, INC., priority 2019, published 2022)
Where a SMILES comes first, the peptide text is derived from it. Bridges are numbered along the chain shown (N, C = ends). [ ]: non-standard residue; d: D form. The star is where a group is joined. 2Nal = N[C@@H](Cc1ccc2ccccc2c1)C(=O)O; Lys(iPr) = CC(C)NCCCC[C@H](N)C(=O)O; Benzoyl(4-F) = O=C(c1ccc(F)cc1)*; Cit = NC(=O)NCCC[C@H](N)C(=O)O

What was measured:
[1] = tested on: A549-CXCR4-ADRB2 cells; assay: Proliferation assay (Prestoblue), A549-CXCR4-ADRB2 cells; settings: serum free, 72 hr; for block of CXCL12 effect on cell proliferation: FIGS. 18A-18E, 10 μM (AMD070 1 μM)
Method: A549 parent cells or A549-CXCR4-ADRB2 cells were plated at a density of 1×10^4 cells/well in 96-well plates and incubated in culture medium for 24 hr to allow adherence. […] At the end of incubation, cell proliferation was assessed by using Prestoblue Cell Viability Reagent (Thermo Fisher Scientific) according to the manufacture's instruction.
A549 double negative (RLuc-lucP) or A549-CXCR4-ADRB2 cell lines overexpressing both CXCR4 and ADRB2 plated at a density of 1×10^4 cells/well in 96-well plates and incubated in culture medium for 24 hr to allow adherence. After washing, Serum free RPMI1640±SDF-1α with or without indicated drugs were added and the cells were incubated for 72 hr (96 hr post seeding) at 37° C., 5% CO2. At the end of incubation, cell proliferation was assessed by using Prestoblue Cell Viability Reagent (Thermo Fisher Scientific, Cat. A13262) according to the manufacture's instruction. Briefly, cells were incubated in 1× Prestoblue Cell Viability Reagent for 1 hr at 37° C. Fluorescence was measured at 560 nm excitation and 590 nm emission using Varioskan LUX multimode microplate reader (Thermo Fisher Scientific). The amount of fluorescence detected was proportional to the number of cells within a well. Results are expressed as mean ratio (FluorescenceDrug/FluorescenceVehicle only) from triplicate wells±SEM.

[2] = target: T1, CXCR4-ADRB2 heteromer (Homo sapiens, UniProt P07550+P61073); assay: Calcium mobilization assay, HL-60 cells endogenously expressing CXCR4 and ADRB2; type: cell-based; settings: for decrease of IC50 of Ca2+ response upon co-treatment of carvedilol, HL-60: Carvedilol 10 μM
[3] = tested on: MDA-MB-231-CXCR4-ADRB2 cells; assay: MDA-MB-231-CXCR4-ADRB2 orthotopic xenograft, tumor growth; type: in vivo, mouse; settings: FIG. 22C; for suppression of tumor growth, single administration: once a day for 4 weeks
Method: The size of the tumors was calculated by converting the tumor size to 100 on the first day of drug administration (% tumor growth). […] Place the needle point in the pre-administration site (between the nipple 2 and 3) and move it to the right or left to make a wide subcutaneous pocket. The Matrigel Mixture (matrigel: cell suspension=50:50) is injected into the subcutaneous pocket. The animals are placed in a breeding box after confirming that the liquid is not spilled at the injection site. […] The day of drug treatment is defined as Day 1. […] The size of the tumor was calculated by converting the tumor size to 100 on the first day of drug administration.

[4] = tested on: A549-CXCR4-ADRB2 cells; assay: A549-CXCR4-ADRB2 xenograft, tumor growth; type: in vivo, mouse; settings: 10 mpk; in only 2 doses
Method: The antitumor effect in mice transplanted with A549 cells containing CXCR4-ADRB2 by stably overexpressing both CXCR4 and ADRB2 (“A549-CXCR4-ADRB2 cells”) was evaluated using CXCR4 inhibitors currently under development or on the market. A549-CXCR4-ADRB2 cells (1×10^7 cell/head) were injected subcutaneously in nude mice. […]. The CXCR4 inhibitors were administered once a day for 4 weeks.
Five week-old, female Balb/c-nu/nu mice were obtained from Envigo (France) and maintained in specific pathogen-free animal facility. All protocols for animal use and euthanasia were approved by the Qubest Bio (South Korea) Animal Experimental Ethics Committee based on the Animal Protection Act. […] The tumor growth was monitored every third or fourth day by measuring the length (L) and width (W) of the tumor with an electronic caliper and calculating tumor volume in the basis of the following formula: Volume=0.5 LW^2.
For the antitumor efficacy test using CXCR4 inhibitors, A549-CXCR4-ADRB2 cell line overexpressing CXCR4 and ADRB2 in A549, lung cancer cell line was subcutaneously administered (1×10^7 cell in 100 μL PBS/head) to BALB/c-nu. […] The tumor growth was monitored every third or fourth day by measuring the length (L) and width (W) of the tumor: Volume=0.5 LW^2.

[5] = target: T2, CXCR4 (Homo sapiens, UniProt P61073); assay: Calcium mobilization assay, MDA-MB-231 cells transduced with CXCR4 only; type: cell-based
T2 construct: expressed in transfected cells; host or cells: MDA-MB-231 (adenoviral transduction)
T2 sequence (P61073 whole entry): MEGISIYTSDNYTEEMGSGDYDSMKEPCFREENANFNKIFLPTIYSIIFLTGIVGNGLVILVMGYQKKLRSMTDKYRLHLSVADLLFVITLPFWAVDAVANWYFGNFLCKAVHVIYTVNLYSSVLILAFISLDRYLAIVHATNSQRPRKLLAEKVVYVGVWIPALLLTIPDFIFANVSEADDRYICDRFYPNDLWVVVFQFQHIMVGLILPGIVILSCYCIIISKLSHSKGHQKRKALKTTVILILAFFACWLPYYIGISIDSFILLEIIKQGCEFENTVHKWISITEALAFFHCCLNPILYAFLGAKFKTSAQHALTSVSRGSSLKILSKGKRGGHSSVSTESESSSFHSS
Method: The next day, cells were co-transduced with 10 MOI of CXCR4 and 30 MOI of GPCRx. Adenoviruses encoding HA-VC were used to adjust the total amount of adenoviruses transduced. After 2 days, cells were treated with antagonist with indicated amounts and incubated with Cal 6 (FLIPR® Calcium 6 Assay Kit by Molecular Devices, Cat. R8191) for 2 hr. […] The results were normalized for base-line activity. […] Data represent three independent experiments (mean±SEM).

[6] = target: T1, CXCR4-ADRB2 heteromer; assay: Calcium mobilization assay, MDA-MB-231 cells co-transduced with CXCR4 and ADRB2; type: cell-based; settings: for IC50: IC50 of Ca2+ response; for IC50 / decrease of IC50 of Ca2+ response upon co-administration of Carvedilol: Table 4; for decrease of IC50 of Ca2+ response upon co-administration of Carvedilol: Carvedilol 600 nM
Method: The next day, the cells were co-transduced with 10 MOI of CXCR4 and 30 MOI of GPCRx. […] Calcium mobilizations were measured using FlexStation 3 Multi-Mode Microplate Reader. The results were normalized for base-line activity. Calcium mobilizations were quantified by calculating the area-under-the-curve (AUC) of each graph.
MDA-MB-231 cells were transduced with adenoviruses encoding CXCR4 only, or CXCR4 and ADRB2.
Calcium mobilization was measured using FlexStation3, and the resulting IC50 values of calcium response were calculated using GraphPad Prism software.
The next day, cells were co-transduced with 10 MOI of CXCR4 and 30 MOI of GPCRx. Adenoviruses encoding HA-VC were used to adjust the total amount of adenoviruses transduced. After 2 days, cells were treated with antagonist with indicated amounts and incubated with Cal 6 (FLIPR® Calcium 6 Assay Kit by Molecular Devices, Cat. R8191) for 2 hr. […] Calcium mobilization was measured using FlexStation 3 Multi-Mode Microplate Reader (Molecular Devices, Sunnyvale, Calif., USA). The results were normalized for base-line activity. […] Data represent three independent experiments (mean±SEM).

[7] = target: T3, ADRB2 (Homo sapiens, UniProt P07550); assay: Calcium mobilization assay, MDA-MB-231 cells transduced with ADRB2 only; type: cell-based; settings: FIG. 5B; CXCL12 15 nM, salmeterol 100 nM
T3 construct: expressed in transfected cells; host or cells: MDA-MB-231 (adenoviral transduction)

[8] = target: T1, CXCR4-ADRB2 heteromer; assay: Calcium mobilization assay, U937 cells endogenously expressing CXCR4 and ADRB2; type: cell-based
[9] = tested on: ERK1/2; assay: Western blot of phospho-ERK1/2, MDA-MB-231 cell lines; type: cell-based, human; settings: for ERK1/2 activation, single agonist: MDA-MB-231 parent, MDA-MB-231-CXCR4 and MDA-MB-231-CXCR4-ADRB2 cells, data not shown
Method: MDA-MB-231 cells and A549 cells, expressing Rluc-luc2P or CXCR4, or containing CXCR4-ADRB2 heteromer, were seeded in 6 well plates at a density of 5×10^5 cells per well. […] Thereafter, each of the sets of cells were harvested and performed western blotting analysis.
Cells were seeded in 6 well plates at a density of 5×10^5 cells per well. […] Thereafter, the cells were harvested using NP-40 lysis buffer (Thermo Fisher Scientific, #FNN0021) supplemented with phosphatase inhibitor cocktail (Roche, #4906845001) and protease inhibitor cocktail (Thermo Fisher Scientific, #A32953). Proteins of cell lysates concentrations were determined by the Bio-Rad protein assay (Bio-Rad, #5000006). 20 μg of protein samples were subjected to reducing SDS-PAGE and transferred to PVDF (Polyvinylidene difluoride) using dry transfer system (Thermo Fisher Scientific, #IB21001). The membranes were blocked with 5% skim milk (BD Difco, #232100) in Tris-Buffered Saline with 1% Tween-twenty for 1 hour and incubated with phospho-ERK1/2 Thr202/Tyr204 (Cell Signaling Technology, #4370) and total-ERK1/2 (Cell Signaling Technology, #4695) antibodies. Antigen-antibody complexes were detected by incubating with horseradish peroxidase coupled secondary antibodies (Cell Signaling Technology) followed by SuperSignal West Femto Maximum Sensitivity Substrate (Thermo Fisher Scientific, #34096). Western blot images were captured and analyzed by iBright Western Blot Imaging System (Thermo Fisher Scientific, #A32752).

[10] = target: T1, CXCR4-ADRB2 heteromer; assay: Internalization inhibition assay, CXCR4-GFP U-2 OS cells transduced with ADRB2; settings: FIG. 8; CXCL12 20 nM or antagonist 10 μM; 20 minutes
Method: To further study if co-internalization of CXCR4 heterodimer was blocked by partner GPCRx antagonists, internalization inhibition assay was performed. […] If CXCR4 formed heterodimer with GPCRx and co-internalized by partner GPCRx, it can be blocked by GPCRx specific antagonist.
Here, the GPCRx evaluated was ADRB2.

[11] = tested on: patient derived cells (PDCs) from glioblastoma; assay: Survival of patient derived cells (ATPlite); type: cell-based, human; settings: PDC expressing CXCR4 and ADRB2; 7 days
Method: Single cell suspensions of resected and dissociated glioblastoma tissues from patients were prepared (provided by Samsung Seoul hospital in Seoul, Korea). These cells were cultured under conditions optimal for propagation and non-differentiation of normal neuronal stem cell. Media were composed serum free Neurobasal media supplemented with basic FGF and EGF.
The effects of GPCRx antagonist on the survival of patient derived cells (PDCs) were assessed using ATPlite (PerkinElmer, Cat. No. 6016739 reagent). ATPlite is an Adenosine Triphospate monitoring system based on firefly luciferase. This luminescence assay is the alternative to colorimetric, fluorometric and radioisotopic assays for the quantitative evaluation of proliferation and cytotoxicity of cultured mammalian cells. Cells were seeded in 384-well plate at 500 cells/well in 40 μL culture media. After overnight growth, the cells were cultured for 7 days in the presence of several dose of GPCRx antagonist or DMSO alone. After a 7-day incubation, 15 μL ATPlite was added into the each well and the plate were shaken for 5 minutes in an orbital shaker at 700 rpm. The luminescent signal was detected within 30 minutes at PerkinElmer TopCount detection instrument. The cell viability was calculated using the equation: Cell viability (%)=(OD of antagonist treatment/OD of DMSO only treatment)×100%.

[12] = tested on: ERK1/2; assay: Western blot of phospho-ERK1/2, A549 cell lines; type: cell-based, human; settings: A549-CXCR4-ADRB2 cells; 10 nM each; 10 minutes
Method: Cells were seeded in 6 well plates at a density of 5×10^5 cells per well. […] Proteins of cell lysates concentrations were determined by the Bio-Rad protein assay (Bio-Rad, #5000006). 20 μg of protein samples were subjected to reducing SDS-PAGE and transferred to PVDF (Polyvinylidene difluoride) using dry transfer system (Thermo Fisher Scientific, #IB21001). […] Western blot images were captured and analyzed by iBright Western Blot Imaging System (Thermo Fisher Scientific, #A32752).

Molecule: NCCCCN(Cc1nc2ccccc2[nH]1)[C@H]1CCCc2cccnc21 [AMD070]
- block of CXCL12 effect on cell proliferation [1]: blocked the CXCL12 effect
- decrease of IC50 of Ca2+ response upon co-treatment of carvedilol, HL-60 [2]: about 12.7 fold
- inhibition of tumor growth, co-administration with Carvedilol ([3]; AMD070 3 or 10 mg/kg with Carvedilol 30 mg/kg): effectively inhibited the growth of the tumor
- suppression of tumor growth, single administration [3]: limited suppression of tumor growth

Molecule: CC(C)NCCCC[C@H](NC(=O)[C@H]1CCC(=O)N[C@@H](Cc2ccccc2)C(=O)N[C@@H](Cc2ccc(O)cc2)C(=O)N[C@@H](CCCCNC(C)C)C(=O)N[C@H](CCCNC(=N)N)C(=O)N[C@@H](Cc2ccc3ccccc3c2)C(=O)NCC(=O)N1)C(N)=O [LY2510924] (FY[Lys(iPr)][dR][2Nal]G[dE][Lys(iPr)]-NH2; lactam N-7)
- block of CXCL12 effect on cell proliferation [1]: blocked the CXCL12 effect
- death of mice [4]: 3 out of 10

Molecule: N=C(N)NCCC[C@H](NC(=O)[C@@H]1CSSC[C@H](NC(=O)[C@H](Cc2ccc3ccccc3c2)NC(=O)[C@H](CCCNC(=N)N)NC(=O)[C@H](CCCNC(=N)N)NC(=O)c2ccc(F)cc2)C(=O)N[C@@H](Cc2ccc(O)cc2)C(=O)N[C@@H](CCCNC(N)=O)C(=O)N[C@@H](CCCCN)C(=O)N[C@H](CCCCN)C(=O)N2CCC[C@H]2C(=O)N[C@@H](Cc2ccc(O)cc2)C(=O)N[C@@H](CCCNC(=N)N)C(=O)N[C@@H](CCCNC(N)=O)C(=O)N1)C(N)=O [BKT140] ({Benzoyl(4-F)}-RR[2Nal]CY[Cit]K[dK]PYR[Cit]CR-NH2; disulfide 4-13)
- block of CXCL12 effect on cell proliferation [1]: blocked the CXCL12 effect
- IC50 ([5]; Table 4, cells expressing CXCR4 alone, CXCR4 inhibitor only, read-out: IC50 of Ca2+ response, CXCR4): 579 ± 204 nM
- IC50 ([6]; CXCR4 + ADRB2 (+Carvedilol 600 nM), co-treated with Carvedilol 600 nM (its IC90)): 1.94 nM
- IC50 ([6]; CXCR4 + ADRB2 (−Carvedilol 600 nM), CXCR4 inhibitor only): 88.7 nM
- decrease of IC50 of Ca2+ response upon co-administration of Carvedilol [6]: about 45.7 fold

Molecule: CXCL12: C-X-C Motif Chemokine ligand 12, CXCR4 agonist
- increase of cell proliferation rate ([1]; CXCL12 100 nM): about 20%
- calcium response, single agonist, cells expressing CXCR4 ([5]; FIG. 5A, CXCL12 15 nM, salmeterol 100 nM): evoked intracellular calcium mobilization
- EC50 ([5]; read-out: EC50 concentration against CXCR4): ~15 nM
- calcium response, single agonist, cells overexpressing ADRB2 alone [7]: did not induced calcium response
- calcium response, single agonist, U937 ([8]; FIG. 26A, CXCL12 200 nM, formoterol 10 μM): evoked an intercellular calcium mobilization
- calcium response, single agonist, HL-60 ([2]; FIG. 26B, CXCL12 200 nM, formoterol 10 μM): evoked an intercellular calcium mobilization
- ERK1/2 activation, single agonist [9]: induced activation of ERK1/2 after 10 minutes
- internalization of CXCR4-GFP with ADRB2, substance alone [10]: induced internalization of CXCR4-GFP with ADRB2

Molecule: c1cc(CN2CCCNCCNCCCNCC2)ccc1CN1CCCNCCNCCCNCC1 [AMD3100, plerixafor]
- block of CXCL12 effect on cell proliferation [1]: blocked the CXCL12 effect
- suppression of enhanced calcium signaling, co-administration with carvedilol ([6]; FIG. 6, AMD3100 10 μM with carvedilol 10 μM): greater suppression of the calcium signaling
- decrease of IC50 of Ca2+ response upon co-administration of Carvedilol [6]: about 10.5 fold
- decrease of IC50 of Ca2+ response upon co-treatment of carvedilol, U937 ([8]; Carvedilol 10 μM): about 6.4 fold
- decrease of IC50 of Ca2+ response upon co-treatment of carvedilol, HL-60 [2]: about 4.4 fold

Molecule: COc1ccccc1OCCNCC(O)COc1cccc2[nH]c3ccccc3c12 (centres unmarked) [Carvedilol]
- IC50 [11]: 11700 nM
- suppression of tumor growth, single administration [3]: limited suppression of tumor growth

Molecule: OCc1cc(C(O)CNCCCCCCOCCCCc2ccccc2)ccc1O (centres unmarked) [salmeterol, Salmeterol]
- ERK1/2 activation, co-stimulation with CXCL12 and salmeterol ([9]; MDA-MB-231-CXCR4-ADRB2 cells, 10 nM each, 20 minutes): synergistically increased
- ERK1/2 activation, single agonist [9]: induced ERK activation after 20 minutes
- ERK1/2 phosphorylation, co-stimulation with CXCL12 and salmeterol [12]: significantly activated
